Assay results: US20040091477A1, “Immunosuppresive compositions” (priority 2003, published 2004)
Read-outs that look alike come from different tables or passages of the source.

Tests used:
[1] = tested on: CD45RA; assay: CD45RA expression by PMA/IOM-stimulated PBMC from asthma patients, flow cytometry; format: cell-based, human
Description: (§1) Venous blood was collected in polyethylene tubes containing EDTA between 9 and 10 a.m. PBMC were separated by Ficoll-paque (Pharmacia, Uppsala, Sweden) density gradient centrifugation. Cells were washed and suspended in AIM-V medium (Gibco BRL, Gaithersburg, Md.) at density of 2×10^6 cells/ml. PBMC were stimulated with 20 nM phorbol 12-myristate 13-acetate (PMA) and 1 μM ionomycin (IOM) (ICN Pharmaceuticals, Inc. CA, USA). The cells were harvested 24 hours later and supernatants were frozen at −70° C. until use. […] For BN52021, a range between 1×10^−9 and 1×10^−4 M was used.
(§2) Two-color flow cytometry was conducted using a Coulter Epics Profile II flow cytometer (Coulter Scientific, Hialeah, Fla., USA). Isotypic controls for the monoclonal antibodies (mAb) used to detect antigens of interest were established for each cell preparation. Positive analysis regions for cells expressing specific surface antigens were set against isotypic controls and specific binding of fluorophore-conjugated mAb was analyzed by cytofluorography according to standard methods. Lymphocyte subpopulations were identified by position on forward and side scatter plots and live-gated. Isotype matched antibodies were utilized to control for nonspecific fluorescence. […] Background values for antibodies used in assays were based on fluorescence of non-specific antibodies. […]

[2] = target: platelet activating factor receptor (PAFR) (Homo sapiens, UniProt P25105); details: cited from earlier work
Sequence of platelet activating factor receptor (PAFR) (P25105 whole entry, species assumed): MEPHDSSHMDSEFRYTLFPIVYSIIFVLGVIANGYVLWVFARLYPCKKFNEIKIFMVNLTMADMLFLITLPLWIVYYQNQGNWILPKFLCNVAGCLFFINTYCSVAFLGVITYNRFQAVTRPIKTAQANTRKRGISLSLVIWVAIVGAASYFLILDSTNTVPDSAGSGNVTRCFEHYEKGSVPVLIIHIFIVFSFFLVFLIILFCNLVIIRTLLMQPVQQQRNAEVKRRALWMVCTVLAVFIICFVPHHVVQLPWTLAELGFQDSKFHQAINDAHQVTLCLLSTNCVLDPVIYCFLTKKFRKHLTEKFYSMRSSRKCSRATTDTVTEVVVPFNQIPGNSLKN

[3] = tested on: CD25; assay: CD25 expression by PMA/IOM-stimulated PBMC from asthma patients, flow cytometry; format: cell-based, human
Description: as §1, §2

[4] = tested on: HLA-DR; assay: HLA-DR expression by PMA/IOM-stimulated PBMC from asthma patients, flow cytometry; format: cell-based, human
Description: as §1, §2

[5] = tested on: IL-4; assay: IL-4 expression by PMA/IOM-stimulated PBMC from asthma patients, ELISA; format: cell-based, human
Description: as §1
(§3) Cytokine expression (IL-4 and IL5) was evaluated in culture supernatants by enzyme-linked immunoabsorption assay (Amersham North America, Illinois, USA). The detection range was 10-400 pg/ml and 7.8-500 pg/ml respectively. Colorimetric changes proportional to supernatant cytokine concentration were measured using a model 2550 EIA reader (Bio-Rad Laboratories, Hercules Calif. USA). All assays were performed in duplicate.
(§4) The data shown Table 2 was obtained using cultures of 2×10^6 human PBMC, which were isolated from venous blood and stimulated 24 hours with media, 20 nM PMA+1.0 μM ionomycin (PMA/I), 1.0 μM cyclosporine A+PMA/IOM, or 1 μM ginkgolide BN52021+PMA. Expression of interleukins 4 and 5 were measured in PBMC culture supernatents by antibody capture ELISA. […]

[6] = tested on: IL-5; assay: IL-5 expression by PMA/IOM-stimulated PBMC from asthma patients, ELISA; format: cell-based, human
Description: as §1, §3, §4

[7] = tested on: CD54; assay: CD54 expression by PMA/IOM-stimulated PBMC from asthma patients, flow cytometry; format: cell-based, human
Description: as §1, §2

[8] = tested on: lymphocyte activation markers; assay: Dose range of BN52021 on lymphocyte activation markers in PBMC from asthma patients; format: cell-based, human; details: 1×10^−5 and 1×10^−7 M, 3 of the patients tested
Description: as §1, §2

[9] = tested on: cAMP-specific phosphodiesterase; details: cited from earlier work
[10] = 1 μM, PMA/IOM-stimulated cultures
[11] = PMA + IOM + 1 μM compound, 24 hours, ±SE

Structure (SMILES): C[C@@H]1C(=O)O[C@H]2[C@@H](O)[C@@]34[C@H]5C[C@@H](C(C)(C)C)[C@]36[C@@H](OC(=O)[C@@H]6O)O[C@@]4(C(=O)O5)[C@@]12O [BN52021, Ginkgolide B]
- effect on CD45RA expression (in words) [1, 10]: decreased significantly
- % CD45RA [1, 11]: 48.8 ± 9.5 %
- PAFR antagonist activity (in words) [2]: PAFR antagonist activity
- PAFR antagonist activity (in words) ([2]; listed as Ginkgolide B): PAFR antagonist
- effect on CD25 expression (in words) [3, 10]: unaffected
- % CD25 [3, 11]: 7.1 ± 2.0%
- effect on HLA-DR expression (in words) [4, 10]: a trend towards the reduction
- % HLA-DR [4, 11]: 21.2 ± 5.3¶ %
- effect on IL-4 expression (in words) [5, 10]: no statistically significant effect
- IL-4 in culture supernatant [5, 11]: 81.7 ± 28.1 pg/mL
- effect on IL-5 expression (in words) [6, 10]: no statistically significant effect
- IL-5 in culture supernatant [6, 11]: 374 ± 105 pg/mL
- effect on CD54 expression (in words) [7, 10]: unaffected
- % CD54 [7, 11]: 27.4 ± 6.9%
- change in lymphocyte activation markers (in words) [8]: No change occurred in lymphocyte activation markers
- cAMP phosphodiesterase inhibitory activity (in words) [9]: does not possess cAMP phophodiesterase activity
